Measured values: patent publication US20220339257A1, “METHODS TO INCREASE THE SENSITIVITY AND REVERSING THE RESISTANCE TO DRUGS” (Biomarker Strategies, LLC, priority 2019, published 2022)

How the values were obtained:
Format in all cases: cell-based
CAL27 cells = assay: Western blot of protein biomarkers; settings: GSK-795 (10 nM)+IFN-γ (50 ng/mL)
Experimental: (§1) MTA and EM effects on protein biomarker expression were measured by western blotting. For the assay cell lines (Ca9-22, PE/CA-PJ15, HTB-38, HPAF-II, CAL27, BICR-16, A-253, Calu-6, PC-9, H1838, RPMI-7951 and A7) were cultured and treated with doses of MTAs alone, EMs alone and in combination and then lysed for protein analysis. This method can readily be conducted under adherent or suspension conditions, manually or on automated instruments, such as SnapPath. A total of 0.3×10^6 cells per well were seeded in 6 well plates with 10% FBS-containing media and incubated for 24 hours. Cells were then treated with MTA and/or EM concentrations for 24 hours. For total protein extraction, briefly, each sample media was collected, and wells were washed with HMS, and the wash was combined with its respective media collection. Cells were then detached using Accutase solution and again collected in its respective sample media and another HMS well wash and collection was performed. All cell solutions were centrifuged, washed with ice-cold PBS, and centrifuged again. Cell pellets were lysed in 250 μL of ice-cold 1× lysis buffer with protease and phosphatase inhibitor cocktails and incubated for 10 minutes on ice. Lysates were clarified with a centrifugation (14,000 rpm) for 10 minutes at 4° C. Cell lysates were quantified using Bio-Rad DC Protein Assay (Bio-Rad Cat. #5000116).
(§2) For all western blots, an equal amount of protein (3-5 μg) was loaded into SDS-polyacrylamide gels (Mini-Protean TGX Precast Gel; Bio-Rad, e.g. 7.5%, Cat. #4561024; 10%, Cat. #4561035; 12%, Cat. #4561045; or 4-15%, Cat. #4561085). Proteins were separated at 215V for at least 30 minutes in 1× Tris/Glycine/SDS buffer (Bio-Rad Cat. #1610772) and transferred to PVDF membranes using a Trans-Blot Turbo (Bio-Rad Cat. #1704155) for 7 minutes in transfer buffer (Trans-Blot Turbo Transfer Kit, Bio-Rad Cat. #1704273). Blots were blocked at room temperature for 1 hour with 5% non-fat dry milk in tris-buffered saline with Tween 20 (TBST; 15 mM Tris-HCl, pH 7.5, 200mMNaCl and 0.1% Tween 20). Membranes were incubated with primary antibodies at 4° C. overnight and at room temperature for 1 hour the next day; all primary antibodies were diluted following manufacturer's specifications in TBST with either 5% BSA or 5% non-fat dry milk. Membranes were washed in TBST for 5 minutes, three times, and incubated with HRP-conjugated secondary antibodies diluted 1:5000 in TBST with 5% non-fat dry milk at room temperature for 1 hour (anti-rabbit IgG, Bio-Rad Cat. #1706515; or anti-mouse IgG, Bio-Rad Cat. #1706516). Membranes were then washed in TBST for 10 minutes, three times, and target proteins were identified using Clarity Western ECL Substrate (Bio-Rad Cat. #1705061) on autoradiography film (GenHunter Cat. #B581, Nashville, Tenn., USA). Other assay types, such as Luminex multiplexed immunoassays, ICC, IHC, flow cytometry, etc. can be used readily.

[1] = test system: panel of cell lines that included NSCLC, HNSCC, melanoma, and CRC; assay: WST8 in vitro sensitivity to MTAs with and without EM
Experimental: (§3) Day 1: cells were harvested cells from flask (4 mL accutase for T175 for 3-5 minutes), and spin down for 5 mins at 1200 rpm. The supernatant was poured off, and the pellet gently resuspended in 1 mL media. Countess counts were performed, and the cells were diluted in media (10% FBS). With multi-channel pipette, 2500 cells were seeded in 100 uL of media (10% FBS) in each well of 96 well plate. The cells were let to adhere and grow for 24 hours. Day 2: serial drug dilutions of MTAs+/−EMs at 5× of concentrations (as done above) were performed in media (10% FBS). 20 uL of media form each well of the 96 well plate (80 uL media left in wells) was removed, and 20 uL of appropriate 5× drug dilutions was added to each respective well (for a 1× conc). The cells were incubated with drug for 72 hours in 37C incubator. Day 5: 10 uL of WST-8 reagent was added to each well of the 96 well plate and mixed gently. the plates were incubated up to 4 hours at 37C in dark, and absorbance readings were taken at […] and 600 nm wavelengths at 1, 2, 3 and 4h, until control absorbance levels were 1.5-2.0).
We used a panel of cell lines that included NSCLC, HNSCC, melanoma, and CRC. These cell lines are a good model system harboring similar (epi)genetic changes found in patients' tumors. We used the WST8 assay to determine the in vitro sensitivity to various MTAs with and without EM1.

HPAF-II = assay: WST-8 cell viability assay
Experimental: as §3
(§4) WST-8 Assay: MTA and EM effects on cell viability were measured by Cell Counting Kit8 (WST-8) colorimetric assay using water-soluble tetrazolium salt WST-8 reagent (Vita Scientific Cat. #DBOC00128). For the assay, cells were seeded in 96-well plates at 2,500 cells per well, in 100 μL of 10% FBS-containing media. After 24 hours, a 1 nM to 10 μM range of MTA and/or 1 ng/mL to 1 mg/mL range of EM doses was added and incubated for 72 hours. After treatment, a 10% volume of WST-8 reagent was added to each well and cells were incubated at 37° C. for up to 4 hours. Solution absorbance was measured at wavelengths of 450 nm and 600 nm at 1-, 2-, 3-, and 4-hour's incubation. Percentage viability of drug-treated cells was calculated relative to untreated control cells. Results were confirmed by three independent experiments.
(§5) For studying the effects of various molecularly targeted agents (MTAs) and enhancer molecules (EMs) alone as well as in combination: HCC827, PC-9, A427, Calu-6, H2228, H358, H1299, H460, H292, H1838, H2170, and H226 (non-small cell lung cancer; NSCLC); and SK-MES-1 […], CAL27, OE21, KYSE-70, A-253, BICR-16, PE/CA-PJ15 and Ca9-22 (head and neck squamous cell carcinoma; HNSCC); SK-MEL-2, SK-MEL-28, RPMI-7951 and A7 (melanoma); HTB-38 and HCT116 (colorectal cancer; CRC); BxPC-3 and HPAF-II (pancreatic cancer); HEPG2 (hepatocellular carcinoma; HCC); A498 (renal cell carcinoma; RCC) cells were used. Other cell lines, including those from other cancer types, or cells collected from more complex sample types such as xenografts and clinical samples can be used. Ultimately, these combinations can be utilized in various clinical and pre-clinical samples and studies. Using the WST-8 cell viability assay, a MTA+EM-induced anti-cancer/anti-growth activity in multiple cell lines was discovered (FIGS. 8-15). Other viability assays, for example, MTT, HoPI staining, dye exclusion (e.g. trypan blue), can be used readily. […] The cut-off value for classifying a “strong anti-cancer/anti-growth enhancement” was a response resulting in >70% reduction in cell survival compared to untreated control cells (100%), while showing greater reduction compared to both MTA and EM alone.

BxPC-3 = assay: WST-8 cell viability assay; settings: in combination with GSK-458, 72 hours
Experimental: as §3, §4, §5

OE21 = assay: WST-8 cell viability assay; settings: in combination with trametinib, 72 hours
Experimental: as §3, §4, §5

HTB-38 = assay: WST-8 cell viability assay
Experimental: as §3, §4, §5

CAL27 = assay: WST-8 cell viability assay; settings: in combination with GSK-795, 72 hours
Experimental: as §3, §4, §5

Calu-6 = assay: WST-8 cell viability assay
Experimental: as §3, §4, §5

BICR-16 = assay: WST-8 cell viability assay; settings: in combination with GSK-458, 72 hours
Experimental: as §3, §4, §5

HPAF-II cells = assay: Western blot of protein biomarkers; settings: trametinib (100 nM)+IL-17 (10 ng/mL), 24 hours
Experimental: as §1, §2

Ca9-22 cells = assay: Western blot of protein biomarkers; settings: osimertinib (100 nM)+IL-17 (10 ng/mL)
Experimental: as §1, §2

Ca9-22 = assay: WST-8 cell viability assay; settings: in combination with osimertinib, 72 hours
Experimental: as §3, §4, §5

A-253 = assay: WST-8 cell viability assay; settings: in combination with spermidine, 72 hours
Experimental: as §3, §4, §5

H2170 = assay: WST-8 cell viability assay; settings: in combination with GSK-458, 72 hours
Experimental: as §3, §4, §5

Calu-6 cells = assay: Western blot of protein biomarkers; settings: GSK-458 (100 nM)+TNF-β (50 ng/mL), 24 hours
Experimental: as §1, §2

[2] = 24 hours, compared to either MTA or EM alone
[3] = compared to either therapy alone
[4] = in combination with GSK-458, 72 hours
[5] = in combination with trametinib, 72 hours

interferon-gamma [EM1, enhancer molecule, cytokine purchased from Sigma]
p-AKT (Ser473) expression (CAL27 cells; [2]): strong reduction in p-AKT (Ser473) expression
LC3II over LC3I expression (CAL27 cells; 24 hours, compared to either alone): marked increase in LC3II over LC3I expression
p62 expression (CAL27 cells; [3]): reduced p62 expression
response enhancement (in vitro sensitivity to various MTAs with and without EM, WST8) [1]: no, minimal and strong response enhancement
anti-cancer/growth enhancement (WST-8 cell viability) (HPAF-II; [4]): moderate-to-strong anti-cancer/growth enhancement
anti-cancer/growth enhancement (WST-8 cell viability) (HPAF-II; [5]): moderate-to-strong anti-cancer/growth enhancement
anti-cancer/growth enhancement (WST-8 cell viability) (BxPC-3): moderate-to-strong anti-cancer/growth enhancement
anti-cancer/growth enhancement (WST-8 cell viability) (OE21): moderate-to-strong anti-cancer/growth enhancement
anti-cancer/growth enhancement (WST-8 cell viability) (HTB-38; [4]): moderate-to-strong anti-cancer/growth enhancement
anti-cancer/growth enhancement (WST-8 cell viability) (HTB-38; in combination with dabrafenib, 72 hours): moderate-to-strong anti-cancer/growth enhancement
anti-cancer/growth enhancement (WST-8 cell viability) (HTB-38; [5]): moderate-to-strong anti-cancer/growth enhancement
anti-cancer/growth enhancement (WST-8 cell viability) (CAL27): moderate-to-strong anti-cancer/growth enhancement
anti-cancer/growth enhancement (WST-8 cell viability) (Calu-6; in combination with GSK-795, 72 hours): moderate-to-strong anti-cancer/growth enhancement
anti-cancer/growth enhancement (WST-8 cell viability) (BICR-16): moderate-to-strong anti-cancer/growth enhancement

interleukin 17 [EM5]
PARP cleavage (HPAF-II cells; compared to MTA and EM alone): very strong PARP cleavage
p-AKT (Ser473) expression (HPAF-II cells; compared to either MTA or EM alone): strong reduction in p-AKT (Ser473) expression
Ki67 degradation and/or fragmentation pattern (HPAF-II cells; [3]): marked increase in the distinct degradation and/or fragmentation pattern of Ki67
p-AKT (Ser473) expression (Ca9-22 cells; [2]): strong reduction in p-AKT (Ser473) expression
Ki67 expression (Ca9-22 cells; compared to both MTA and EM alone): enhanced reduction in Ki67 expression
anti-cancer/growth enhancement (WST-8 cell viability) (HPAF-II; [5]): moderate-to-strong anti-cancer/growth enhancement
anti-cancer/growth enhancement (WST-8 cell viability) (Ca9-22): moderate-to-strong anti-cancer/growth enhancement
anti-cancer/growth enhancement (WST-8 cell viability) (A-253): moderate-to-strong anti-cancer/growth enhancement
anti-cancer/growth enhancement (WST-8 cell viability) (H2170): moderate-to-strong anti-cancer/growth enhancement
anti-cancer/growth enhancement (WST-8 cell viability) (Calu-6; [5]): moderate-to-strong anti-cancer/growth enhancement

B1: tumor necrosis factor-beta (protein, UniProt P01374 35-205, looked up)
Lymphotoxin-alpha: LPGVGLTPSAAQTARQHPKMHLAHSTLKPAAHLIGDPSKQNSLLWRANTDRAFLQDGFSLSNNSLLVPTSGIYFVYSQVVFSGKAYSPKATSSPLYLAHEVQLFSSQYPFHVPLLSSQKMVYPGLQEPWLHSMYHGAAFQLTQGDQLSTHTDGIPHLVLSPSTVFFGAFAL
notes: enhancer molecule, cytokine purchased from Sigma
PARP cleavage (Calu-6 cells; compared to MTA and EM alone): very strong PARP cleavage
Ki67 degradation and/or fragmentation pattern (Calu-6 cells; [3]): marked increase in the distinct degradation and/or fragmentation pattern of Ki67
anti-cancer/growth enhancement (WST-8 cell viability) (Ca9-22): anti-cancer/growth enhancement
